Converted amounts (≈) assume the structure as drawn. Like-named read-outs stand apart in the source and are kept apart here. Peptide text beside a SMILES is read from it.
Key:
P. gingivalis = format: cell-based, Porphyromonas gingivalis
Method: (§1) In certain embodiments the MIC assays are performed as described herein in the Examples. For each organism, the media and growth conditions utilized is detailed in Table 8.
(§2) In certain embodiments the MIC assays are performed as follows: For each organism, the media and growth conditions utilized is detailed in Table 8.

A. naeslundii = format: cell-based, Actinomyces naeslundii
Method: as §1, §2

S. mutans = format: cell-based, Streptococcus mutans
Method: as §1, §2

F. nucleatum = format: cell-based, Fusobacterium nucleatum
Method: as §1, §2

B. subtilis = format: cell-based, Bacillus subtilis
Method: as §1, §2

C. jeikeium = format: cell-based, Corynebacterium jeikium
Method: as §1, §2

P. aeruginosa = format: cell-based, Pseudomonas aeruginosa
Method: as §1, §2

S. epidermidis = format: cell-based
Method: as §1, §2

T. rubrum = format: cell-based, Trichophyton rubrum
Method: as §1, §2

C. difficile = format: cell-based, Clostridium difficile
Method: as §1, §2

A. baumannii = format: cell-based, Acinetobacter baumannii
Method: as §1, §2

A. niger = format: cell-based, Aspergillus niger
Method: as §1, §2

M. furfur = assay: MIC assay; format: cell-based, Malassezia furfur; conditions: ATCC medium 1072, 37° C., aerobic, 10^5 CFU/ml
Method: as §1, §2

MRSA = format: cell-based, Staphylococcus aureus; conditions: MRSA; BHI supplemented with 2% glucose, 37° C., aerobic, 10^5 CFU/ml
Method: as §1, §2

MIC (P. gingivalis)	MIC (A. naeslundii)	MIC (S. mutans)	MIC (F. nucleatum)	MIC (B. subtilis)	MIC (C. jeikeium)	MIC (P. aeruginosa)	MIC (S. epidermidis)	MIC (T. rubrum)	MIC (C. difficile)	MIC (A. baumannii)	MIC (A. niger)	SMILES	MIC (P. gingivalis; P. gingivalis, Columbia broth, 37° C., anaerobic, 10^5 CFU/ml)	MIC (M. furfur)	MIC (MRSA)	MIC (P. aeruginosa; P. aeruginosa, MH, 37° C., aerobic, 10^5 CFU/ml)	MIC (S. epidermidis; S. epidermidis, BHI supplemented with 0.25% glucose, 37° C., aerobic, 10^5 CFU/ml)	MIC (T. rubrum; T. rubrum, Potato Dextrose Agar, 25° C., aerobic, 10^5 CFU/ml)	MIC (S. mutans; S. mutans, TH supplemented with 1% sucrose, 37° C., anaerobic, 10^5 CFU/ml)
50 µM (≈ 118 µg/mL)	25 µM (≈ 59 µg/mL)	50 µM (≈ 118 µg/mL)	50 µM (≈ 118 µg/mL)									CC[C@H](C)[C@H](NC(=O)[C@H](CCC(N)=O)NC(=O)[C@H](CCCCN)NC(=O)[C@H](CC(C)C)NC(=O)[C@H](CC(C)C)NC(=O)[C@@H]1CCCN1C(=O)[C@H](CCSC)NC(=O)[C@H](CC(C)C)NC(=O)[C@H](CO)NC(=O)[C@H](CCCCN)NC(=O)CNC(=O)[C@@H](N)CCCCN)C(=O)N[C@@H](CC(N)=O)C(=O)N[C@@H](CCC(N)=O)C(=O)N[C@@H](Cc1c[nH]c2ccccc12)C(=O)NCC(=O)N[C@@H](CCCCN)C(=O)N[C@@H](CC(C)C)C(=O)N[C@@H](Cc1ccc(O)cc1)C(=O)N[C@@H](CC(C)C)C(=O)O [PF-C239] (H-KGKSLMPLLKQINQWGKLYL-OH; N-terminus and C-terminus assumed)							
		12.5 µM (≈ 33 µg/mL)		25 µM (≈ 66 µg/mL)	6.25 µM (≈ 16.5 µg/mL)	50 µM (≈ 132 µg/mL)	50 µM (≈ 132 µg/mL)	50 µM (≈ 132 µg/mL)	12.5 µM (≈ 33 µg/mL)	25 µM (≈ 66 µg/mL)	25 µM (≈ 66 µg/mL)	CC[C@H](C)[C@H](NC(=O)[C@H](CCCCN)NC(=O)[C@@H](NC(=O)[C@H](CCCCN)NC(=O)[C@H](CCCCN)NC(=O)[C@@H](NC(=O)[C@H](CCCCN)NC(=O)[C@@H]1CCCN1C(=O)[C@H](CCCNC(=N)N)NC(=O)[C@@H]1CCCN1C(=O)[C@H](CCC(N)=O)NC(=O)[C@H](CCC(N)=O)NC(=O)[C@H](CC(N)=O)NC(=O)[C@H](CC(C)C)NC(=O)[C@H](Cc1c[nH]cn1)NC(=O)[C@H](Cc1ccccc1)NC(=O)[C@H](CCC(N)=O)NC(=O)[C@@H](NC(=O)[C@@H](N)Cc1ccc(O)cc1)[C@@H](C)CC)C(C)C)[C@@H](C)CC)C(=O)N[C@@H](Cc1ccccc1)C(=O)N[C@@H](CC(C)C)C(=O)O [PF-531] (H-YIQFHLNQQPRPKVKKIKIFL-OH; N-terminus and C-terminus assumed)							
												CC[C@H](C)[C@H](NC(=O)[C@@H](NC(=O)[C@H](CO)NC(=O)CN)C(C)C)C(=O)N[C@@H](CCCCN)C(=O)N[C@@H](CCCCN)C(=O)N[C@@H](CCCNC(=N)N)C(=O)N[C@@H](CCCNC(=N)N)C(=O)N[C@@H](CCCCN)C(=O)N[C@@H](CCCNC(=N)N)C(=O)N[C@@H](CCSC)C(=O)N[C@@H](CO)C(=O)N[C@@H](CCCCN)C(=O)N[C@@H](CCCCN)C(=O)N[C@@H](CCCCN)C(=O)N[C@@H](Cc1c[nH]cn1)C(=O)N[C@@H](CCCNC(=N)N)C(=O)N[C@@H](CCCCN)C(=O)N[C@@H](CCSC)C(=O)N[C@@H](CC(C)C)C(=O)N[C@@H](CCCNC(=N)N)C(=O)N[C@@H](CCCNC(=N)N)C(=O)N[C@H](C(=O)N[C@@H](CCCNC(=N)N)C(=O)N[C@H](C(=O)N[C@@H](CCC(N)=O)C(=O)N[C@@H](CCCNC(=N)N)C(=O)N[C@@H](CCCNC(=N)N)C(=O)N[C@@H](CCCCN)C(=O)N[C@@H](CC(C)C)C(=O)NCC(=O)N[C@@H](CCCCN)C(=O)O)C(C)C)[C@@H](C)O [PF-S028]	25 µM (≈ 101 µg/mL)	2.5 µM (≈ 10.1 µg/mL)	50 µM (≈ 202 µg/mL)	50 µM (≈ 202 µg/mL)	25 µM (≈ 101 µg/mL)	50 µM (≈ 202 µg/mL)	50 µM (≈ 202 µg/mL)

Reference: patent US20100184684A1, “ANTIBACTERIAL AND ANTIFUNGAL PEPTIDES” (C3 JIAN, INC., priority 2009, published 2010)
